Measurements from patent US9919060B2 (University Court of the University of Dundee, priority 2009, dated 2018).

Key:
CYP1A1 [1] = target: T1, CYP1A1 (Homo sapiens, UniProt P04798); conditions: TMS 10 nmol dm^−3; without inhibitor 21 ± 3
T1 sequence (P04798 1-512): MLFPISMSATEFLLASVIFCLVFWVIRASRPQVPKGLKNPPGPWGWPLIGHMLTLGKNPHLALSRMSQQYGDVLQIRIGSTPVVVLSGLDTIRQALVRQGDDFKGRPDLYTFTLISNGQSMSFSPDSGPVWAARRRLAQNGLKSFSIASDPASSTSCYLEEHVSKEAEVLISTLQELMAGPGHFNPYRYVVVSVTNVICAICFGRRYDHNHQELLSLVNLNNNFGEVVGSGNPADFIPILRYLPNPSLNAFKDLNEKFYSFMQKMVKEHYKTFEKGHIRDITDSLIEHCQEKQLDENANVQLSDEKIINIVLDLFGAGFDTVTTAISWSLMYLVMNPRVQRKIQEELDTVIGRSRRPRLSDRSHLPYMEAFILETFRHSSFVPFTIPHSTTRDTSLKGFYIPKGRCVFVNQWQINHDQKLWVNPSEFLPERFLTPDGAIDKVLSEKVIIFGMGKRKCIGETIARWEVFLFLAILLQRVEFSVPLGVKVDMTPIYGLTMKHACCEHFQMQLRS

CYP1B1 = target: T2, CYP1B1 (Homo sapiens, UniProt Q16678); assay: CYP1B1 substrate prediction model (Gaussian Kernel weighted k-NN)
T2 sequence (Q16678 1-543): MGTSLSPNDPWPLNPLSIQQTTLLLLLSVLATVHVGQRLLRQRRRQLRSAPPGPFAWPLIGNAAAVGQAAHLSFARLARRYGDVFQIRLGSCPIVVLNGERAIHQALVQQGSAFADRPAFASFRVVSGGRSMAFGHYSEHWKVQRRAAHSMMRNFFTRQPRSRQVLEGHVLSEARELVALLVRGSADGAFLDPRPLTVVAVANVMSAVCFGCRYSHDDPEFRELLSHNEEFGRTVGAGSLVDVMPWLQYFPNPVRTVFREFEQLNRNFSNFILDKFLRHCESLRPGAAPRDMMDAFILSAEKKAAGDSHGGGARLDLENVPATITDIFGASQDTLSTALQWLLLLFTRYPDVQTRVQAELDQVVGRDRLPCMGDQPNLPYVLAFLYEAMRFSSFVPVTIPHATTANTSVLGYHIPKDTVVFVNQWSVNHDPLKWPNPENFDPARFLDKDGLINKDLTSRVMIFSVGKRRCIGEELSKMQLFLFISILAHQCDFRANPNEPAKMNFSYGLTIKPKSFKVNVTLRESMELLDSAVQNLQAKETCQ

CYP1A1 [2] = target: T1, CYP1A1; type: cell-based; conditions: TMS 10 nmol dm^−3; without inhibitor 29 ± 4
Method: (§1) Dihydrofolate reductase (DHFR) gene amplification of either human cDNA CYP1A1 or cDNA CYP1B1 in CHO cells was used to achieve high levels of functional enzyme when co-expressed with human P450 reductase (ibid.; Ding S, et al., Biochem J., 356(Pt 2): 613-9, 2001). […] The resulting cell lines were analysed for CYP1A1 or CYP1B1 expression by immunoblotting. […]
(§2) The ethoxyresorufin O-deethylation (EROD) assay is widely used to confirm functional CYP1 activity (Chang T K and Waxman D J, “Enzymatic Analysis of cDNA-Expressed Human CYP1A1, CYP1A2, and CYP1B1 with 7-Ethoxyresorufin as Substrate”, Methods Mol. Biol., 320: 85-90, 2006, the contents of which are incorporated herein by reference). The assay determines O-dealkylation of 7-ethoxyresorufin by CYP1A1, CYP1A2, and CYP1B1 to generate the enzymatic product resorufin, which is monitored continuously by fluorescence emission at 580 nm. […]

[3] = substrate: CCOc1ccc2nc3ccc(=O)cc-3oc2c1; type: cell-based, human; conditions: other: fluorogenic substrate
Method: as §1, §2

Molecule: O=P1(N(CCCl)CCCl)NCCCO1 (stereo not drawn) [cyclophosphamide]
- Toxicity in the CHO cytotoxicity assay at highest concentration (wild-type CHO cells): non-toxic

Molecule: COc1cc(/C=C/c2ccc(OC)cc2OC)cc(OC)c1 [tetramethoxystilbene]
- Specific activity, CHO/CYP1A1, Luciferin-CEE (CYP1A1 [1]): 20 ± 5 pmol resorufin or luciferin min^−1 mg protein^−1
- % CYP1B1 substrate inhibition, accuracy (predicted versus actual) (CYP1B1): 98%
- Specific activity, CHO/CYP1A1, ethoxyresorufin (CYP1A1 [2]): 26 ± 4 pmol resorufin or luciferin min^−1 mg protein^−1

B1: CYP1B1 (Homo sapiens) (protein)
chain: MGTSLSPNDPWPLNPLSIQQTTLLLLLSVLATVHVGQRLLRQRRRQLRSAPPGPFAWPLIGNAAAVGQAAHLSFARLARRYGDVFQIRLGSCPIVVLNGERAIHQALVQQGSAFADRPAFASFRVVSGGRSMAFGHYSEHWKVQRRAAHSMMRNFFTRQPRSRQVLEGHVLSEARELVALLVRGSADGAFLDPRPLTVVAVANVMSAVCFGCRYSHDDPEFRELLSHNEEFGRTVGAGSLVDVMPWLQYFPNPVRTVFREFEQLNRNFSNFILDKFLRHCESLRPGAAPRDMMDAFILSAEKKAAGDSHGGGARLDLENVPATITDIFGASQDTLSTALQWLLLLFTRYPDVQTRVQAELDQVVGRDRLPCMGDQPNLPYVLAFLYEAMRFSSFVPVTIPHATTANTSVLGYHIPKDTVVFVNQWSVNHDPLKWPNPENFDPARFLDKDGLINKDLTSRVMIFSVGKRRCIGEELSKMQLFLFISILAHQCDFRANPNEPAKMNFSYGLTIKPKSFKVNVTLRESMELLDSAVQNLQAKETCQ
- Km [3]: Ethoxyresorufin for CYP1A1and CYP1B1 Km ~0.27 μmol dm^−3 μmol dm^−3

B2: CYP1A1 (Homo sapiens) (protein)
chain: MLFPISMSATEFLLASVIFCLVFWVIRASRPQVPKGLKNPPGPWGWPLIGHMLTLGKNPHLALSRMSQQYGDVLQIRIGSTPVVVLSGLDTIRQALVRQGDDFKGRPDLYTFTLISNGQSMSFSPDSGPVWAARRRLAQNGLKSFSIASDPASSTSCYLEEHVSKEAEVLISTLQELMAGPGHFNPYRYVVVSVTNVICAICFGRRYDHNHQELLSLVNLNNNFGEVVGSGNPADFIPILRYLPNPSLNAFKDLNEKFYSFMQKMVKEHYKTFEKGHIRDITDSLIEHCQEKQLDENANVQLSDEKIINIVLDLFGAGFDTVTTAISWSLMYLVMNPRVQRKIQEELDTVIGRSRRPRLSDRSHLPYMEAFILETFRHSSFVPFTIPHSTTRDTSLKGFYIPKGRCVFVNQWQINHDQKLWVNPSEFLPERFLTPDGAIDKVLSEKVIIFGMGKRKCIGETIARWEVFLFLAILLQRVEFSVPLGVKVDMTPIYGLTMKHACCEHFQMQLRS
- Km [3]: Ethoxyresorufin for CYP1A1and CYP1B1 Km ~0.27 μmol dm^−3 μmol dm^−3
